Results published in patent publication US20080182851A1, “ACETYLENE DERIVATIVES AS STEAROYL COA DESATURASE INHIBITORS” (Glenmark Pharmaceuticals S.A., priority 2006, published 2008).

molecular target: T1, human SCD1 enzyme (Homo sapiens, UniProt O00767); test: Tritiated water release assay (conversion of radiolabeled stearoyl-CoA to oleoyl-CoA); type: biochemical; settings: 10 μM concentration of test compounds; microsomal SCD1, 3H stearoyl CoA, 37° C. 30 minutes; percent of control reaction
T1 sequence (O00767 1-359): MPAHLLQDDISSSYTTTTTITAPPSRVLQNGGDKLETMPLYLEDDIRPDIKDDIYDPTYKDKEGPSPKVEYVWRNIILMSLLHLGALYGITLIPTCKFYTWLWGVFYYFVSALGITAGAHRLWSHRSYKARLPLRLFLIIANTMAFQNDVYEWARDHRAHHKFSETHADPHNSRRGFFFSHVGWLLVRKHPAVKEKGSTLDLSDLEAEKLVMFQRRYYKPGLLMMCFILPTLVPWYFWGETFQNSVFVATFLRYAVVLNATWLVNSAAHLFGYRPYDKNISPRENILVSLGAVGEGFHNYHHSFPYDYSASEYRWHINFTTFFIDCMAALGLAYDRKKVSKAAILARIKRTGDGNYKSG
Protocol: The in-vitro activity of the compounds of the present invention against stearoyl coenzyme desaturase was determined by following conversion of radiolabeled-stearoyl-CoA to oleoyl-CoA using human SCD1 enzyme using a previously published assay procedure with some modifications (Barbara R Talamo and Konrad Bloch, Analytical Biochemistry, 1969, 29, 300-304). This assay protocol is only illustrative and is not meant to limit to the scope of the present invention.
In this assay the microsomal SCD1 enzyme desaturates its substrate, Stearoyl CoA (purchased from American Radiochemicals Ltd.) which is tritiated at C9 and C10 positions. Test compounds were dissolved in dimethylsulfoxide and tested at 10 μM final concentration. Before substrate addition, the test compound or standard reference compound (conjugated linoleic acid at 100 μM final concentration) were pre-incubated in reaction buffer with the enzyme for 10 minutes at 30° C. with shaking. Reaction buffer was prepared as described in literature (Obukowicz et al. JPET, 1998, 287, 157-166) except that the MgCl2, ATP (purchased from Sigma) and CoA (purchased from Sigma) concentrations were changed to 4.9 mM, 7.2 mM and 0.54 mM respectively. The desaturation reaction was initiated by addition of 0.5 μCi of ^3H stearoyl CoA and incubated at 37° C. for 30 minutes with shaking. A control reaction was set without any test compound/reference inhibitor to capture maximum enzymatic activity in the assay. Inhibition of enzyme activity was calculated as a percent of this control reaction giving maximum catalysis and the results are given in Table 5.
Table 5: Tritiated water release assay at 10 μM substrate concentration *Conjugated Linoleic acid was used as a reference standard

Row | Compound | inhibition at 10 µM [%]
1 | Oc1ccc(C#Cc2ccc(N3CCC(Oc4ccccc4F)CC3)nn2)cc1 [Example 77] | 97

same assay, conditions: 10 μM concentration of test compounds; microsomal SCD1, 3H stearoyl CoA, 37° C. 30 minutes; percent of control reaction; read-out: % Inhibition

Row | Compound | inhibition at 10 µM [%]
2 | [O-][n+]1cccc(C#Cc2ccc(N3CCC(Oc4ccccc4F)CC3)nc2)c1 [Example 74] | 44
3 | CC(=O)Oc1ccc(C#Cc2ccc(N3CCC(Oc4ccccc4F)CC3)nn2)cc1 [Example 75, 4-[{6-[4-(2-Fluorophenoxy)piperidin-1-yl]pyridazin-3-yl}ethynyl]phenyl acetate] | 88
4 | Oc1ccc(C#Cc2ccc(N3CCC(Oc4ccccc4F)CC3)nn2)cc1 [Example 76, 4-(2-{6-[4-(2-Fluorophenoxy)piperidino]-3-pyridazinyl}-1-ethynyl)phenol] | 100
5 | Fc1ccccc1OC1CCN(c2ccc(C#Cc3ccc(OCCN4CCCCC4)cc3)nn2)CC1 [Example 78] | 43
6 | Fc1ccccc1OC1CCN(c2ccc(C#Cc3ccc(OCCN4CCOCC4)cc3)nn2)CC1 [Example 79] | 37
7 | O=C(Oc1ccc(C#Cc2ccc(N3CCC(Oc4ccccc4F)CC3)nn2)cc1)c1ccco1 [Example 80, 4-{6-[4-(2-Fluorophenoxy)piperidin-1-yl]pyridazin-3-yl}ethynylphenyl-2-furoate] | 86
8 | Oc1ccc(C#Cc2ccc(N3CCC(Oc4ccc(Br)cc4F)CC3)nn2)cc1 [Example 81] | 95
9 | Oc1ccc(C#Cc2ccc(N3CCC(Oc4ccccc4F)CC3)nn2)cc1F [Example 82] | 98
10 | COc1cc(C#Cc2ccc(N3CCC(Oc4ccccc4F)CC3)nn2)ccc1O [Example 83, 2-Methoxy-4-{6-[4-(2-fluorophenoxy)piperidin-1-yl]pyridazin-3-yl}ethynylphenol] | 93
11 | Fc1ccccc1OC1CCN(c2ccc(C#Cc3ccc(C(F)(F)F)cc3)nn2)CC1 [Example 84, 3-[4-(2-Fluorophenoxy)piperidino]-6-[2-(4-trifluoromethylphenyl)-1-ethynyl]pyridazine] | 37
12 | CC(=O)Oc1cccc(C#Cc2ccc(N3CCC(Oc4ccccc4F)CC3)nn2)c1 [Example 85] | 97
13 | Oc1cccc(C#Cc2ccc(N3CCC(Oc4ccccc4F)CC3)nn2)c1 [Example 86, 3-(2-{6-[4-(2-Fluorophenoxy)piperidino]-3-pyridazinyl}-1-ethynyl)phenol] | 100
14 | CC(C)(C)C(=O)Oc1cccc(C#Cc2ccc(N3CCC(Oc4ccccc4F)CC3)nn2)c1 [Example 87, 3-[{6-[4-(2-Fluorophenoxy)piperidin-1-yl]pyridazin-3-yl}ethynyl]phenyl pivalate] | 27
15 | N#Cc1ccccc1OC1CCN(c2ccc(C#Cc3cccc(O)c3)nn2)CC1 [Example 88] | 95
16 | Fc1cccc(C#Cc2ccc(N3CCC(Oc4ccccc4C(F)(F)F)CC3)nn2)c1 [Example 89, 3-[2-(3-Fluorophenyl)-1-ethynyl]-6-[4-(2-trifluoromethylphenoxy)piperidino]pyridazine] | 82
17 | CC(=O)Oc1cccc(C#Cc2ccc(N3CCC(Oc4ccccc4C(F)(F)F)CC3)nn2)c1 [Example 90, 3-(2-{6-[4-(2-Trifluoromethylphenoxy)piperidino]-3-pyridazinyl}-1-ethynyl)phenyl acetate] | 95
18 | Oc1cccc(C#Cc2ccc(N3CCC(Oc4ccccc4C(F)(F)F)CC3)nn2)c1 [Example 91, 3-(2-{6-[4-(2-Trifluoromethylphenoxy)piperidino]-3-pyridazinyl}-1-ethynyl)phenol] | 100
19 | CC(=O)Oc1ccc(C#Cc2ccc(N3CCC(Oc4cc(Cl)ccc4Cl)CC3)nn2)cc1 [Example 92, 4-[{6-[4-(2,5-Dichlorophenoxy)piperidin-1-yl]pyridazin-3-yl}ethynyl]phenyl acetate] | 97
20 | Oc1ccc(C#Cc2ccc(N3CCC(Oc4cc(Cl)ccc4Cl)CC3)nn2)cc1 [Example 93, 4-[{6-[4-(2,5-Dichlorophenoxy)piperidin-1-yl]pyridazin-3-yl}ethynyl]phenol] | 96
21 | COc1c(F)ccc(C#Cc2ccc(N3CCC(Oc4ccccc4F)CC3)nn2)c1F [Example 94, 3-[(2,4-Difluoro-3-methoxyphenyl)ethynyl]-6-[4-(2-fluorophenoxy)piperidin-1-yl]pyridazine] | 12
22 | [O-][n+]1cccc(C#Cc2ccc(N3CCC(Oc4ccccc4F)CC3)nn2)c1 [Example 95] | 24
23 | NC(=O)c1cccc(C#Cc2ccc(N3CCC(Oc4cccnc4)CC3)nn2)c1 [Example 96] | 30
24 | Cc1cccc(C#Cc2cnc(N3CCC(Oc4ccccc4F)CC3)nc2)c1 [Example 97] | 36
25 | Oc1cccc(C#Cc2cnc(N3CCC(Oc4ccccc4F)CC3)nc2)c1 [Example 98] | 95
26 | CC(=O)Oc1ccc(C#Cc2ccc(NCCOc3ccccc3F)nn2)cc1 [Example 99] | 55
27 | Oc1ccc(C#Cc2ccc(NCCOc3ccccc3F)nn2)cc1 [Example 100] | 63
28 | CC(=O)Oc1ccc(C#Cc2ccc(N3CCC(Nc4ccccc4F)CC3)nn2)cc1 [Example 101] | 82
29 | Oc1ccc(C#Cc2ccc(N3CCC(Nc4ccccc4F)CC3)nn2)cc1 [Example 102, 4-{6-[4-(2-Fluorophenylamino)piperidin-1-yl]pyridazin-3-yl}ethynylphenol] | 96
